Assay results from ChEMBL document CHEMBL1255520, “Azole derivatives as histamine H3 receptor antagonists, part I: thiazol-2-yl ethers” (Bioorg Med Chem Lett, 2010).
pKi: −log10 of the molar value.

Target: Histamine H3 receptor (Homo sapiens, UniProt Q9Y5N1)
Assay: Displacement of [125I]iodoproxyfan human histamine H3 receptor

Chain of Histamine H3 receptor (Q9Y5N1 whole entry): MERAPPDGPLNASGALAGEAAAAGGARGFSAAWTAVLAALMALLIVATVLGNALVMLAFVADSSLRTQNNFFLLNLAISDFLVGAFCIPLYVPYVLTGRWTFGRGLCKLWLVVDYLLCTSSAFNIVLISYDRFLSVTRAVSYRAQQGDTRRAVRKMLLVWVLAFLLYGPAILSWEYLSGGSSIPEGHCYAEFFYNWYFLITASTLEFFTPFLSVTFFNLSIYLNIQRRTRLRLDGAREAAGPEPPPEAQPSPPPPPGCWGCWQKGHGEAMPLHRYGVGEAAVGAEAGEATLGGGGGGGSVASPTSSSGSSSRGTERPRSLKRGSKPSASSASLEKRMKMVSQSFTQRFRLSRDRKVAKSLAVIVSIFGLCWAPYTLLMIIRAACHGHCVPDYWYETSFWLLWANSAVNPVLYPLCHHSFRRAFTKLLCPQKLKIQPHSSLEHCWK

Structure (SMILES) | pKi
CN(C)CCCOc1nc2c(s1)CCN(C)C2 | 6.59
CN(C)CCCOc1nc2c(s1)CCCC2 | < 6.00
CN(C)CCCOc1nc2c(s1)CCOC2 | < 6.00
CN(C)CCCOc1nc2c(s1)CCCC2=O | 6.82
CN1CCc2sc(OCCCN3CCCCC3)nc2C1 | 7.62
C1CCN(CCCOc2nc3c(s2)CCCC3)CC1 | 6.45
C1CCN(CCCOc2nc3c(s2)CCOC3)CC1 | 6.46
CC(=O)c1nc(OCCCN2CCCCC2)sc1C | 6.81
O=C1CCCc2sc(OCCCN3CCCCC3)nc21 | < 6.00
CCN1CCc2sc(OCCCN3CCCCC3)nc2C1 | 7.85
c1ccc(CN2CCc3sc(OCCCN4CCCCC4)nc3C2)cc1 | 6.58
C1CCN(CCCOc2nc3c(s2)CCN(CCCN2CCCCC2)C3)CC1 | 7.70
Brc1nc(OCCCN2CCCCC2)sc1-c1ccccc1 | 7.03
Cc1nc(OCCCN2CCCCC2)sc1-c1ccccc1 | 7.39
c1ccc(-c2nc(OCCCN3CCCCC3)sc2-c2ccccc2)cc1 | 7.95
